Five compounds from publication PMC12336439 (Archiv Der Pharmazie, 2025) can be followed below.

SMILES strings stand for the structures. Values joined by “and” are separate entries in the source; they are usually repeats but may differ in a detail not shown here. Equal entries are not always repeated. Where two headings read alike, the source gives them in different places.

The target in experiment [1] is T1, USP7cd (USP7 catalytic domain) (Homo sapiens, UniProt Q93009).
T1 construct: USP7 catalytic domain (USP7CD) (208‐560); made in house
The experiment is described as follows: Ub-AMC enzyme activity assay, IC50 determination. In kind it is biochemical. Particulars: 10 nM USP7cd, 500 nM Ub-AMC, 24 h pre-incubation at 20°C. The method, then:
Therefore, USP7 was incubated for 24 h with ten different compound concentrations, and IC50 values were then obtained with a fluorescent DUB substrate (Ub‐AMC) (Figure 9A–F). The pre‐incubation times were chosen to account for the slow covalent binding kinetics observed in the previous experiments.
The cleavage activity of USP7cd in the presence or absence of inhibitors was measured using Ubiquitin‐Aminomethylcoumarin (Ub‐AMC) (Enzo Life Sciences GmbH, Lörrach, Germany) as a fluorogenic substrate. The fluorescence was monitored using the CLARIOstar plate reader (BMG Labtech GmbH, Ortenberg, Germany) at 25°C at 360 nm excitation and 460 nm emission wavelengths. […] Each measurement was performed at least twice in duplicate. […] Ub‐AMC was added to a final concentration of 500 nM, and the fluorescence was measured after 1 h. The normalized dose‐response semi‐logarithmic curves were fitted using OriginPro2021 and the four‐parameter logistic function.
Different concentrations of compounds were pre-incubated with USP7 for 24 h at 20 °C in a rotating shaker in 25 mM Tris pH 8.0, 150mM NaCl, 5 mM TCEP supplemented with 0.2 mg/mL bovine serum albumin (BSA). Fluorescence was measured after 1 h of the addition of Ub-AMC. The dose response semi-logarithmic curves were fitted using OriginPro2021 and the four-parameter logistic function.

A further experiment concerns the target T2, USP7asoc (Homo sapiens, UniProt Q93009, C300S/C315S/C334S/C478S/C488S/C510S).
T2 construct: (208‐560, C300/315/334/448/478/510S); made in house
The experiment is described as follows: Intact protein MS (UHPLC-ESI-MS), covalent modification of USP7asoc. In kind it is binding. Particulars: 24 h incubation at 20°C, protein-to-compound ratio 1:31.25. Here is the method: The DSF results described above were validated by UHPLC‐ESI‐MS to verify possible covalent binding through a corresponding mass shift. Intact protein MS is an important screening method in irreversible‐covalent hit identification and is especially suitable for covalent fragment‐based drug discovery (FBDD). It allows for the identification of covalent binders by detecting covalent protein‐compound adducts, thus making use of the stability of the covalent bond. USP7 was prepared in Tris buffer (25 mM Tris pH 8.0, 150 mM NaCl, 5 mM TCEP) with a protein‐to‐compound ratio of 1:31.25 and 5% (v/v) DMSO. The protein‐compound mixtures were all incubated at 20°C for 24 h on a rotating shaker. The analysis of intact protein mass was carried out using UHPLC‐ESI‐MS measurements, with data acquisition and data analysis as previously described.

Another experiment deals with T3, USP7 (Homo sapiens, UniProt Q93009).
T3 construct: USP7 catalytic domain (USP7CD) (208‐560); made in house
The experiment is described as follows: Differential scanning fluorimetry (DSF), melting temperature shift of USP7. Particulars: 8 µM protein, 250 µM compound (1:31.25). In kind it is binding. For orientation: Differential scanning fluorimetry follows unfolding on heating by fluorescence.

The mark [2] stands for this setting: supplement table, read-out: Biological Activity (IC50).

T2 sequence (Q93009 with tags, fused parts or gaps C300S/C315S/C334S/C478S/C488S/C510S): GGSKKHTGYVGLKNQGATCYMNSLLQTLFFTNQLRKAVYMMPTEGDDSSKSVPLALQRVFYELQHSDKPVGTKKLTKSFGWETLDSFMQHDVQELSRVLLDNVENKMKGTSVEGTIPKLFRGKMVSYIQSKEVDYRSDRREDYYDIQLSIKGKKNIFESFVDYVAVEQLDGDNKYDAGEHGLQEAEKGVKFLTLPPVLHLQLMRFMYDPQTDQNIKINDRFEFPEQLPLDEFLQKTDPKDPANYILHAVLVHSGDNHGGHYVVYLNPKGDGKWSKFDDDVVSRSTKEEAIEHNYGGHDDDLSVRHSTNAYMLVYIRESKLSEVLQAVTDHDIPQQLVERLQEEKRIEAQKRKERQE
T3 sequence (Q93009 with tags, fused parts or gaps): as the sequence (Q93009 with tags, fused parts or gaps C300S/C315S/C334S/C478S/C488S/C510S) above, with S96C, S111C, S130C, S274C, S284C, S306C counted along it
T1 sequence (Q93009 with tags, fused parts or gaps): as the sequence (Q93009 with tags, fused parts or gaps C300S/C315S/C334S/C478S/C488S/C510S) above, with S96C, S111C, S130C, S274C, S284C, S306C counted along it

As for `O=[N+]([O-])c1ccc(F)nc1Nc1cc2c(-c3ccc(-c4ccncc4)cc3)cccc2cn1` [7i, N‐(6‐Fluoro‐3‐nitropyridin‐2‐yl)‐5‐[4‐(pyridin‐4‐yl)phenyl]isoquinolin‐3‐amine], the IC50 (commonly the concentration at which inhibition is half-maximal) in experiment [1] (read-out: IC50 USP7cd) is above 1000 µM. For the same compound, the “protein species in deconvoluted mass spectrum of USP7asoc” value (“protein species” for short) at USP7asoc was “unmodified USP7 and USP7asoc as the main peak”. Besides, the “∆T m ± SD USP7” value is “–0.13 ± 0.09 °C” at USP7 (30 min incubation at 20°C), “–0.40 ± 0.08 °C” on USP7 (4 h incubation at 20°C) and “–0.45 ± 0.09 °C” on USP7 (24 h incubation at 20°C).
Regarding `Cn1ccc(-c2cccc3cnc(Nc4nc(F)ccc4[N+](=O)[O-])cc23)c1` [7b, N‐(6‐Fluoro‐3‐nitropyridin‐2‐yl)‐5‐(1‐methyl‐1H‐pyrrol‐3‐yl)isoquinolin‐3‐amine], the IC50 in experiment [1] (read-out: IC50 USP7cd) is 56.6 µM and 57 µM; in experiment [1] (setting [2]), 56.6 ± 6.11 µM. The “protein species” value on USP7asoc was “unmodified protein species as a main peak for both USP7 and USP7asoc”. For the same compound, the “∆T m ± SD USP7” value on USP7 (30 min incubation at 20°C) was “–0.10 ± 0.09 °C”; at USP7 (4 h incubation at 20°C), 0.00 ± 0 °C; at USP7 (24 h incubation at 20°C), 0.00 ± 0 °C.
Turning to `CCCn1cc(-c2cccc3cnc(Nc4nc(F)ccc4[N+](=O)[O-])cc23)cn1` [7d, N‐(6‐Fluoro‐3‐nitropyridin‐2‐yl)‐5‐(1‐propyl‐1H‐pyrazol‐4‐yl)isoquinolin‐3‐amine], the IC50 in experiment [1] (read-out: IC50 USP7cd) was 26.8 µM and 27 µM; in experiment [1] (setting [2]) it was 26.8 ± 7.54 µM. In addition, at USP7asoc, the “protein species” value is recorded as “single modified protein as the main signal”. For the same compound, the results for the “∆T m ± SD USP7” value on USP7 (30 min incubation at 20°C) and at USP7 (4 h incubation at 20°C) were “–0.30 ± 0.06 °C” and “–0.18 ± 0.03 °C”, respectively.
For `CCn1cc(-c2cccc3cnc(Nc4nc(F)ccc4[N+](=O)[O-])cc23)cn1` [7c, 5‐(1‐Ethyl‐1H‐pyrazol‐4‐yl)‐N‐(6‐fluoro‐3‐nitropyridin‐2‐yl)isoquinolin‐3‐amine], the IC50 was 36.2 µM and 36 µM in experiment [1] (read-out: IC50 USP7cd); 36.2 ± 2.21 µM in experiment [1] (setting [2]). Besides, the “protein species” value at USP7asoc was “mainly showed the attachment of a single molecule to USP7 and USP7asoc”. The “∆T m ± SD USP7” value on USP7 (30 min incubation at 20°C) was “–0.45 ± 0.12 °C”; on USP7 (4 h incubation at 20°C), “–0.45 ± 0 °C”.
As for `O=[N+]([O-])c1ccc(F)nc1Nc1cc2c(-c3cnn(C4CC4)c3)cccc2cn1` [7e, 5‐(1‐Cyclopropyl‐1H‐pyrazol‐4‐yl)‐N‐(6‐fluoro‐3‐nitropyridin‐2‐yl)isoquinolin‐3‐amine], the IC50 in experiment [1] (read-out: IC50 USP7cd) was 48.4 µM and 48 µM; in experiment [1] (setting [2]) it was 48.3 ± 5.68 µM. For the same compound, the “protein species” value at USP7asoc is “mono‐arylated USP7 and USP7asoc species as main peaks”. Also, the “∆T m ± SD USP7” value was “–0.23 ± 0.06 °C” at USP7 (30 min incubation at 20°C) and 0.02 ± 0.03 °C at USP7 (4 h incubation at 20°C).
